In publication PMC11171218, “N-Benzylated 5-Hydroxybenzothiophene-2-carboxamides as Multi-Targeted Clk/Dyrk Inhibitors and Potential Anticancer Agents” (Cancers, 2024) one finds IC50, inhibition and melting point data, which are given here for six compounds.

Structures are written as SMILES. Read-outs that look alike come from different tables or passages of the source.

Data set [1] concerns the target T1, Clk1 (Homo sapiens, UniProt P49759). Details: method as in PMID 28561591, PMID 25221649. The note with it: Figure 1; ref [38],[45]; cited from earlier work.
Data set [2] concerns the target T1, Clk1. In words: Z'-LYTE kinase inhibition assay, Clk1. In kind it is biochemical. The note with it: for IC50: ATP conc. equivalent to Km; for inhibition at 1 µM: read-out: Clk1 % Inh. At 1 µM. From the text:
(§1) 3. Experimental procedure for protein kinases and inhibition assays.
(§2) 3.1 The Z ́ -LYTE biochemical assay for screening and IC 50 determination for Clk1, Dyrk1A, Dyrk1B, Clk2 and Clk3 kinases.
(§3) The assay employs a fluorescence-based, coupled-enzyme format and is based on the differential sensitivity of phosphorylated and non-phosphorylated peptides to proteolytic cleavage. The peptide substrate is labeled with two fluorophores-one at each end-that make up a FRET pair. In the primary reaction, the kinase transfers the gamma-phosphate of ATP to a single tyrosine, serine, or threonine residue in a synthetic FRET-peptide. In the secondary reaction, a site-specific protease recognizes and cleaves non-phosphorylated FRET-peptides. Phosphorylation of FRET-peptides suppresses cleavage by the Development Reagent. Cleavage disrupts FRET between the donor (i.e., coumarin) and acceptor (i.e., fluorescein) fluorophores on the FRET-peptide, whereas uncleaved, phosphorylated FRET-peptides maintain FRET. A ratiometric method, which calculates the ratio (the Emission Ratio) of donor emission to acceptor emission after excitation of the donor fluorophore at 400 nm, is used to quantitate reaction progress. Both cleaved and uncleaved FRET-peptides contribute to the fluorescence signals and therefore to the Emission Ratio. The extent of phosphorylation of the FRET-peptide can be calculated from the Emission Ratio. The Emission Ratio will remain low if the FRET-peptide is phosphorylated (i.e., no kinase inhibition) and will be high if the FRET-peptide is non-phosphorylated (i.e., kinase inhibition).
(§4) The IC 50 values were determined for compounds displaying significant % inhibition in the screening step. IC 50 determination was done through testing at a range of concentrations with two […]
two independent experiments.
3.1.1 Clk1 kinase assay specific conditions:
The 2x Clk1 / Ser/Thr 09 mixture is prepared in 50 mM HEPES pH 7.5, 0.01% BRIJ-35, 10 mM MgCl 2, 1 mM EGTA. The final 10 μL kinase reaction consists of 30 - 120 ng Clk1 and 2 μM Ser/Thr 09 in 50 mM HEPES pH 7.5, 0.01% BRIJ-35, 10 mM MgCl 2, 1 mM EGTA. After the 1 h

A further data set addresses Dyrk1A (Homo sapiens, UniProt Q13627). Nature of the data set: Z'-LYTE kinase inhibition assay, Dyrk1A. The note with it: read-out: Dyrk1A % Inh. At 1 µM. The class given is biochemical.
Description: as §1, §2, §3, §4
(§5) two independent experiments. […]
3.1.2 Dyrk1A kinase assay specific conditions:
The 2x Dyrk1A / Ser/Thr 18 mixture is prepared in 50 mM HEPES pH 7.5, 0.01% BRIJ-35, 10 […]
2 µM Ser/Thr 18 in 50 mM HEPES pH 7.5, 0.01% BRIJ-35, 10 mM MgCl 2, 1 mM EGTA. […]
(§6) Development Reagent A is added. […]
(§7) MgCl2, 1 mM EGTA, 0.02% NaN3. […]

A further data set deals with Dyrk1B (Homo sapiens, UniProt Q9Y463). Nature of the data set: Z'-LYTE kinase inhibition assay, Dyrk1B. The class given is biochemical. The note with it: for inhibition at 1 µM: read-out: Dyrk1B % Inh. At 1 µM.
Description: as §1, §2, §3, §4, §5
3.1.3 Dyrk1B kinase assay specific conditions:
The 2X Dyrk1B / Ser/Thr 18 mixture is prepared in 50 mM HEPES pH 6.5, 0.01% BRIJ-35, 10 […]
mM MgCl2, 1 mM EGTA, 0.02% NaN3.
as §6, §7

T1 sequence (P49759 whole entry): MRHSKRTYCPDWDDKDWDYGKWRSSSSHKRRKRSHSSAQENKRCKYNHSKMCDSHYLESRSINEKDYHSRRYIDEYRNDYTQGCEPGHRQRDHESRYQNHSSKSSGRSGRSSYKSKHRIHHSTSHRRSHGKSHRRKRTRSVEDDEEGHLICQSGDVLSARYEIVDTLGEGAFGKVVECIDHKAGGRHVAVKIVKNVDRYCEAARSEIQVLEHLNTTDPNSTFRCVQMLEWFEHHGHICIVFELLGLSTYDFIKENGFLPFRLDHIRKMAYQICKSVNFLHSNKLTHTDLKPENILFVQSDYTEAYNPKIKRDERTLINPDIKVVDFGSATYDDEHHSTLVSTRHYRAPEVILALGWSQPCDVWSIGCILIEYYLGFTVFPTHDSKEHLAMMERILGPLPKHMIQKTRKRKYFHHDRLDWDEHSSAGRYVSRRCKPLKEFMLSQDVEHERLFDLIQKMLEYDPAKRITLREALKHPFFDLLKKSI
Chain of Dyrk1B (Q9Y463 whole entry): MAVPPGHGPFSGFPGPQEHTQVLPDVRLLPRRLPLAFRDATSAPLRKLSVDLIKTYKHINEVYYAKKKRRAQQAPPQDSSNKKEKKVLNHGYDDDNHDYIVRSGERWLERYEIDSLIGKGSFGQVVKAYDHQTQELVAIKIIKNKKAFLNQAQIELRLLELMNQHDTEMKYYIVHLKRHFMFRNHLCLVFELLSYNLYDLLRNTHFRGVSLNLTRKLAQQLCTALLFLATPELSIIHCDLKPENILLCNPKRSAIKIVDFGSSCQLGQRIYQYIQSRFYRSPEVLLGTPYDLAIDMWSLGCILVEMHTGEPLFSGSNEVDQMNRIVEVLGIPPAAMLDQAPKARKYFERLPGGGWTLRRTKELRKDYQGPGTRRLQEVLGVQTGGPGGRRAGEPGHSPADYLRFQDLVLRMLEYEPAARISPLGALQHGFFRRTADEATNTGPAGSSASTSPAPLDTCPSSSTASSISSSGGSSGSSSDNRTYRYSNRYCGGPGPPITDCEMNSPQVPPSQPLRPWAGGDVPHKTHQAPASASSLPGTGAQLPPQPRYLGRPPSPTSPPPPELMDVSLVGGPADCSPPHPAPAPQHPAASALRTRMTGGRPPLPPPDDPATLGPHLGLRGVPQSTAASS

`Cc1ccc(C(=O)c2cc3cc(O)ccc3s2)cc1O` [Compound (ii)]: on Clk1 [1], the IC50 is 60 nM.
`O=C(NCc1cccc(F)c1F)c1cc2cc(O)ccc2s1` [Compound 15, N-(2,3-Difluorobenzyl)-5-hydroxybenzo[b]thiophene-2-carboxamide] yielded a melting point of 199.7 to 201.9 °C. On Clk1 [2], the half-maximal inhibitory concentration (IC50) was 779 nM and the inhibition at 1 µM came out at 61%. For the same compound, the inhibition at 1 µM on Dyrk1A was 53%. Further, the IC50 at Dyrk1B (ATP conc. equivalent to Km) came out at 645 nM. Also, the inhibition at 1 µM on Dyrk1B amounted to 61%.
In the case of `O=C(NCc1cc(Cl)cc(Cl)c1)c1cc2cc(O)ccc2s1` [Compound 14, N-(3,5-Dichlorobenzyl)-5-hydroxybenzo[b]thiophene-2-carboxamide], the melting point fell in the range of 189.4 to 192.1 °C. At Clk1 [2], the IC50 was 744 nM and the inhibition at 1 µM is 61%. Besides, the inhibition at 1 µM on Dyrk1A turned out to be 41%. Further, the inhibition at 1 µM at Dyrk1B was 12%.
The like results for `O=C(NCCc1ccccc1)c1cc2cc(O)ccc2s1` [Compound 29, 5-Hydroxy-N-phenethylbenzo[b]thiophene-2-carboxamide] were, in that order, 99.2 to 101.1 °C, 753 nM, 61%, 29% and 48%.
The compound `Cc1ccc(CNC(=O)c2cc3cc(O)ccc3s2)cc1` [Compound 10, 5-Hydroxy-N-(4-methylbenzyl)benzo[b]thiophene-2-carboxamide] registered a melting point of 186.6 to 187.6 °C. Besides, the inhibition at 1 µM on Clk1 [2] worked out at 30%. Further, on Dyrk1A, the inhibition at 1 µM turned out to be 8%. For the same compound, the inhibition at 1 µM at Dyrk1B is 0%.
As to `CC(=O)c1cc2cc(O)ccc2s1` [Compound (i)], on Clk1 [1], the half-inhibitory concentration (IC50) was 50 nM.

One may read the IC50 as the concentration that gives 50% inhibition. The melting point is the temperature of the solid-liquid transition.
